In article PMC4503722, “Novel Phenotypic Outcomes Identified for a Public Collection of Approved Drugs from a Publicly Accessible Panel of Assays” (PLoS ONE, 2015):
Where two headings read alike, the source gives them in different places.

Legend:
STC-1 cell line = format: cell-based, mouse; conditions: for IC50/EC50, mSTC-1 GLP1 Secretion (assay number 13): concentration response
[1] = test system: endothelial tube formation in co-cultures of ECFCs and ADSCs treated with VEGF; test: cells; format: cell-based, human
NCI-H716 cells = test: cells; format: cell-based, Human; conditions: for IC50/EC50, hNCI-H716 GLP1 Secretion (assay number 12): concentration response
[2] = test system: ECFC/ADSC co-culture cell nuclei number
HeLa cells = test: cells; format: cell-based
DLD-1 = test: cells; format: cell-based
HCT116 = test: cells; format: cell-based
HT-29 = test: cells; format: cell-based
SW480 = test: cells; format: cell-based
Colo320 = test: cells; format: cell-based
RKO = test: cells; format: cell-based
SNU-C1 = test: cells; format: cell-based

Compound: Clc1ccccc1C(c1ccccc1)(c1ccccc1)n1ccnc1 [NCGC00015251-13]
- IC50/EC50, mSTC-1 GLP1 Secretion (assay number 13) (STC-1 cell line): > 40 µM
- IC50/EC50, VEGF_ADSC\ECFC Angio CD31 TubeArea (assay number 2) [1]: 3.0384 µM
- IC50/EC50, hNCI-H716 GLP1 Secretion (assay number 12) (NCI-H716 cells): 20.2249 µM
- IC50/EC50, VEGF_ADSC\ECFC Angio Hoechst NucArea (assay number 3) [2]: > 10 µM
- IC50/EC50, Hela CellCycMod PI 2N (assay number 14) (HeLa cells; 2N): > 10 µM
- IC50/EC50, Hela CellCycMod PI 4N (assay number 16) (HeLa cells; 4N): > 10 µM
- IC50/EC50, Hela CellCycMod PI Cell Number (assay number 18) (HeLa cells; Cell Number): > 10 µM
- IC50/EC50, Hela CellCycMod PI MI (assay number 17) (HeLa cells; MI): > 10 µM
- IC50/EC50, Hela CellCycMod PI S Phase (assay number 15) (HeLa cells; S Phase): > 10 µM

Compound: CC(C)(C)CC(C)(C)c1ccc(O)cc1 [NCGC00164127-07]
- mSTC-1 GLP1 Secretion IC50/EC50 (STC-1 cell line; assay number 13): 8.3699 µM
- VEGF_ADSC\ECFC Angio CD31 TubeArea IC50/EC50 [1]: > 10 µM
- hNCI-H716 GLP1 Secretion IC50/EC50 (NCI-H716 cells; assay number 12): 25.8625 µM
- VEGF_ADSC\ECFC Angio Hoechst NucArea IC50/EC50 [2]: 9.1112 µM

Compound: C[C@@H](NCCCc1cccc(C(F)(F)F)c1)c1cccc2ccccc12.Cl [NCGC00181002-04]
- mSTC-1 GLP1 Secretion IC50/EC50 (STC-1 cell line; assay number 13): > 40 µM
- VEGF_ADSC\ECFC Angio CD31 TubeArea IC50/EC50 [1]: > 10 µM
- hNCI-H716 GLP1 Secretion IC50/EC50 (NCI-H716 cells; assay number 12): 17.1869 µM
- VEGF_ADSC\ECFC Angio Hoechst NucArea IC50/EC50 [2]: > 10 µM

Compound: CC(O)C(=O)O.CCCCCCCCCCCCCCNCCO [NCGC00164503-02]
- mSTC-1 GLP1 Secretion IC50/EC50 (STC-1 cell line; assay number 13): > 20 µM
- VEGF_ADSC\ECFC Angio CD31 TubeArea IC50/EC50 [1]: > 10 µM
- hNCI-H716 GLP1 Secretion IC50/EC50 (NCI-H716 cells; assay number 12): 13.5546 µM
- VEGF_ADSC\ECFC Angio Hoechst NucArea IC50/EC50 [2]: 9.1871 µM

Compound: O=c1[nH]sc2cc(Cl)ccc12 [NCGC00262908-01]
- IC50/EC50, mSTC-1 GLP1 Secretion (assay number 13) (STC-1 cell line): > 40 µM
- IC50/EC50, VEGF_ADSC\ECFC Angio CD31 TubeArea (assay number 2) [1]: > 10 µM
- IC50/EC50, hNCI-H716 GLP1 Secretion (assay number 12) (NCI-H716 cells): > 40 µM
- IC50/EC50, VEGF_ADSC\ECFC Angio Hoechst NucArea (assay number 3) [2]: 9.427 µM

Compound: CC[C@H](C)C(=O)O[C@H]1C[C@@H](C)C=C2C=C[C@H](C)[C@H](CC[C@@H]3C[C@@H](O)CC(=O)O3)[C@H]21 [NCGC00023509-13]
- mSTC-1 GLP1 Secretion IC50/EC50 (STC-1 cell line; assay number 13): > 40 µM
- VEGF_ADSC\ECFC Angio CD31 TubeArea IC50/EC50 [1]: 3.2658 µM
- hNCI-H716 GLP1 Secretion IC50/EC50 (NCI-H716 cells; assay number 12): 32.895 µM
- VEGF_ADSC\ECFC Angio Hoechst NucArea IC50/EC50 [2]: > 10 µM
- Hela CellCycMod PI 2N IC50/EC50 (HeLa cells; assay number 14, 2N): > 10 µM
- Hela CellCycMod PI S Phase IC50/EC50 (HeLa cells; assay number 15, S phase): > 10 µM
- Hela CellCycMod PI 4N IC50/EC50 (HeLa cells; assay number 16, 4N): > 10 µM
- Hela CellCycMod PI MI IC50/EC50 (HeLa cells; assay number 17, MI): > 10 µM
- Hela CellCycMod PI Cell Number IC50/EC50 (HeLa cells; assay number 18, cell number): > 10 µM

Compound: Cc1cc(C(C)(C)CC(C)(C)C)ccc1OCCOCC[N+](C)(C)Cc1ccccc1 [NCGC00016789-06]
- mSTC-1 GLP1 Secretion IC50/EC50 (STC-1 cell line; assay number 13): > 40 µM
- VEGF_ADSC\ECFC Angio CD31 TubeArea IC50/EC50 [1]: > 10 µM
- hNCI-H716 GLP1 Secretion IC50/EC50 (NCI-H716 cells; assay number 12): 12.042 µM
- VEGF_ADSC\ECFC Angio Hoechst NucArea IC50/EC50 [2]: 8.703 µM

Compound: CCc1oc2ccccc2c1C(=O)c1cc(Br)c(O)c(Br)c1 [NCGC00013895-08]
- mSTC-1 GLP1 Secretion IC50/EC50 (STC-1 cell line): > 40 µM
- Basal_Viability ATP DLD-1 IC50/EC50 (DLD-1): 0.2675 µM
- Basal_Viability ATP HCT116 IC50/EC50 (HCT116): 1.057 µM
- VEGF_ADSC\ECFC Angio CD31 TubeArea IC50/EC50 [1]: > 10 µM
- Basal_Viability ATP HT-29 IC50/EC50 (HT-29): 1.1416 µM
- hNCI-H716 GLP1 Secretion IC50/EC50 (NCI-H716 cells): > 40 µM
- VEGF_ADSC\ECFC Angio Hoechst NucArea IC50/EC50 [2]: > 10 µM
- Basal_Viability ATP SW480 IC50/EC50 (SW480): 1.7408 µM
- Hela CellCycMod PI 2N IC50/EC50 (HeLa cells): > 10 µM
- Hela CellCycMod PI 4N IC50/EC50 (HeLa cells): > 10 µM
- Hela CellCycMod PI Cell Number IC50/EC50 (HeLa cells): > 10 µM
- Hela CellCycMod PI MI IC50/EC50 (HeLa cells): > 10 µM
- Hela CellCycMod PI S Phase IC50/EC50 (HeLa cells): > 10 µM
- Basal_Viability ATP Colo 320 IC50/EC50 (Colo320): > 20 µM
- Basal_Viability ATP RKO IC50/EC50 (RKO): 0.1312 µM
- Basal_Viability ATP SNU-C1 IC50/EC50 (SNU-C1): 0.1053 µM

Compound: CCCCCCCC/C=C\CCCCCCCCN [NCGC00164329-03]
- mSTC-1 GLP1 Secretion IC50/EC50 (STC-1 cell line; assay number 13): > 40 µM
- VEGF_ADSC\ECFC Angio CD31 TubeArea IC50/EC50 [1]: > 10 µM
- hNCI-H716 GLP1 Secretion IC50/EC50 (NCI-H716 cells; assay number 12): 14.7555 µM
- VEGF_ADSC\ECFC Angio Hoechst NucArea IC50/EC50 [2]: 9.128 µM

Compound: CCCCCCCCCCCCCCCC[N+](C)(C)CCN(Cc1ccc(OC)cc1)c1ncccn1.[Br-] [NCGC00016507-05]
- mSTC-1 GLP1 Secretion IC50/EC50 (STC-1 cell line; assay number 13): > 40 µM
- VEGF_ADSC\ECFC Angio CD31 TubeArea IC50/EC50 [1]: 3.0741 µM
- hNCI-H716 GLP1 Secretion IC50/EC50 (NCI-H716 cells; assay number 12): 17.7844 µM
- VEGF_ADSC\ECFC Angio Hoechst NucArea IC50/EC50 [2]: > 10 µM
- Hela CellCycMod PI 2N IC50/EC50 (HeLa cells; assay number 14, 2N): > 10 µM
- Hela CellCycMod PI 4N IC50/EC50 (HeLa cells; assay number 16, 4N): > 10 µM
- Hela CellCycMod PI MI IC50/EC50 (HeLa cells; assay number 17, MI): > 10 µM
- Hela CellCycMod PI Cell Number IC50/EC50 (HeLa cells; assay number 18, cell number): 0.3488 µM

Compound: O=C(Nc1ccc(S(=O)(=O)N2CCOCC2)cc1)c1cc(Cl)ccc1NS(=O)(=O)c1ccc(Cl)s1 [NCGC00249417-02]
- mSTC-1 GLP1 Secretion IC50/EC50 (STC-1 cell line; assay number 13): > 40 µM
- VEGF_ADSC\ECFC Angio CD31 TubeArea IC50/EC50 [1]: > 10 µM
- hNCI-H716 GLP1 Secretion IC50/EC50 (NCI-H716 cells; assay number 12): > 40 µM
- VEGF_ADSC\ECFC Angio Hoechst NucArea IC50/EC50 [2]: > 10 µM
